Reference: patent US9034863B2, “Compositions and methods for inhibiting entry of a hepatic virus” (The Board of Trustees of the University of Illinois, priority 2008, dated 2015)

Test system: HCVcc
Experiment: HCV cell-to-cell spread, foci-size assay with cell-free spread blocked by anti-E2 antibody
Assay type: cell-based, Hepatitis C virus (HCV)
Procedure: Using an established antibody blocking approach (Timpe, et al. (2008) Hepatology 47:17-24), in which an antibody to the HCV E2 glycoprotein is used to block cell-free virus spread, the role of NPC1L1, CD81, or claudin-1 in cell-to-cell spread was tested. Briefly, subconfluent Huh7 cells were inoculated with HCVcc at a low multiplicity of infection (MOI) of 0.01 ffu/cell for 15 hours to allow sufficient time for initial viral entry into the primary cells (Sabahi, et al. (2010) Virology 407:110-9). Cells were then washed and cell-free virus spread was blocked by addition of an anti-E2 antibody at a concentration which neutralizes extracellular virus infection of cells. In parallel, cultures were co-treated with antibodies to CD81, Claudin-1 or NPC1L1 to determine if blocking of these factors prevents cell-to-cell spread. At seventy two hours post-infection, monolayers were fixed and stained for HCV-positive foci. Spread was determined by the size of the foci, as quantified by the number of cells per foci. Foci composed of 1-2 HCV E2-positive cells, which could have formed via cell division, were scored as infections that had not spread cell-to-cell, and are referred to as one-two cell foci, and represent a baseline for the assay. Foci containing […] cells were scored as infections that had successfully spread cell-to-cell, and are referred to as multicellular foci.
To confirm the role of NPC1L1 in HCV spread and verify that ezetimibe inhibits HCV cell-to-cell spread, Huh7-1 cells were inoculated with HCV JFH-1 at an MOI of 0.01 for 16 hours to allow cell-free entry to initiate infection in a small percentage of cells, before being washed and then incubated with increasing concentrations of ezetimibe. Once again extracellular HCV entry was blocked by the addition of anti-E2 antibody to neutralize cell-free virus in all cultures. […] Cells were fixed at 72 hours post-infection, and then stained to detect the number and the size of the E2-positive foci. The foci were counted and scored as one-two cell foci or as multicellular foci. […] To ensure that multicellular foci were not a result of cell division over the time course of the experiment, the same experiment was repeated in non-growing Huh7-1 cells and similar results were obtained.
Because HCV cell-free spread requires the production and secretion of infectious viral particles from infected cells, an alternative way to block cell-free virus spread is to prevent the release of infectious virus from already infected cells. […] It was of interest to determine whether the VLDL secretory pathway and related virion lipid modifications are required for cell-to-cell spread. […]

O=C1[C@H](CC[C@H](O)c2ccc(F)cc2)[C@@H](c2ccc(O)cc2)N1c1ccc(F)cc1 [ezetimibe, 1-(4-fluorophenyl)-(3R)-[3-(4-fluorophenyl)-(3S)-hydroxypropyl]-(45)-(4-hydroxyphenyl)-2-azetidinone]
size of foci (30 μM added post-viral inoculation): foci of 1-2 cells
number of independent infection initiation events (foci of 1-2 E2-positive cells) (added post-infection, 24 hours post-infection): did not block infection
size of the E2-positive foci formed (increasing concentrations added post-inoculation, 72 hours post-infection): dose-dependent inhibition

O=C1C[C@@H](c2ccc(O)cc2)Oc2cc(O)cc(O)c21 [naringenin]
HCV cell-to-cell spread (number and size of foci) (non-growing Huh7-1 cells, five days post-infection, vs vehicle): inhibition of cell-to-cell spread was not detected
